What was measured:
trigeminal ganglion CGRP [1] = experiment: CGRP immunostaining of trigeminal ganglion after recurrent spreading depression; type: in vivo, rat; conditions: n=5/group
Method: N2B delivery of 150 μg human recombinant IGF-1 (#191-G1; R&D Systems, Minneapolis, MN) in 50 μL sodium succinate buffer followed the previously described approach (21,51) that was based on the techniques of Liu and coworkers (24) in the recording laboratory under isoflurane anesthesia with spontaneous ventilation.
Induction of recurrent SD followed previously published aseptic techniques from the inventors' laboratory (8, 13, 21, 25, 26, 51) (FIG. 4). […]
(§1) Imaging was performed using a Photometrics self-calibrating digital camera QuantEM-512SC camera (500×500 pixels; Photometrics, Tucson, AZ) run on MetaMorph software (v. 7.0.4; Molecular Devices, Sunnyvale, CA) under blinded conditions (as previously described (13, 20-22). Image exposure, camera gain and thresholding were uniformly set (i.e., equivalently for experimental and sham groups for each imaging metric (i.e., MDA, CGRP and c-fos). Resultant images were digitally stored as TIFF files for subsequent analyses that continued under blinded conditions where image integrated fluorescence intensity was registered using MetaMorph software for MDA and CGRP.
Images of MDA and CGRP were analyzed while blinded and later decoded to ratios of experimental/sham image integrated optical intensity, a sensitive metric that not only accounts for the area but also the pixel intensity of related image fluorescence. […]

[2] = tested on: caudal trigeminal nucleus c-fos; experiment: c-fos immunostaining of caudal trigeminal nucleus after recurrent spreading depression; type: in vivo, rat; conditions: −4.5 mm from the obex, n=6/group
Description: Induction of recurrent SD followed previously published aseptic techniques from the inventors' laboratory (8, 13, 21, 25, 26, 51) (FIG. 4). Animals were anesthetized with 5% isoflurane, which was later reduced to 1.5% inhalational isoflurane in oxygen during procedures and followed previous procedures for assessing the impact of recurrent SD after pretreatment with N2B IGF-1 (21, 51)).
One day after N2B treatment and surgery, animals were again anesthetized with 5% isoflurane in oxygen that was reduced to 1.5% during recordings of CSD followed by procedures to induce recurrent CSD every 10 minutes for 90 minutes as previously described (FIG. 4) (21,51). […]
For c-fos image analyses, the 5× digitally stored TIFF files were electronically enlarged to facilitate cell counting to 6,400×6,400 pixels and adjusted for brightness/contrast equivalently between experimental group pairs using Image J (v. 1.43i; National Institutes of Health public access). c-fos labeled nuclei were manually counted by an observer blinded to experimental conditions. Only intensely stained, round or oval-shaped nuclei were counted in lamina I-II [obex through −6.0 mm, recording the average of n=3 sections (technical replicates) at each anatomical level per animal (n≥5 biological replicates/group)]. […]

[3] = tested on: rat hippocampal brain slice cultures; conditions: cited from earlier work
trigeminal ganglion CGRP [4] = experiment: CGRP immunostaining of trigeminal ganglion (V1) in naïve animals 24 hours after N2B IGF-1; type: in vivo, rat
Method: 24 hours later animals were re-anesthetized, brains harvested and processed for CGRP immunostaining of the TG. Images were obtained from each animal and image fluorescence intensity quantified via a digital imaging strategy. Three images were measured per animal and the averages recorded. Nasal delivery and image processing was completed while blinded to conditions. Experiments, immunostaining and imaging were done in pairs (i.e., sham and IGF-1) to reduce potential variability. […] This reduction was significant (p<0.001; alpha=0.05; power of 1.00). Scale bar=50 μm. […]
The inventors used computer-based and blinded semi-quantitative digital quantification of immunostaining metrics to test the ability of N2B IGF-1 to impact TS activation. […]
as §1, with “CGRP. […]” for “CGRP.”

## IGF-1: human recombinant IGF-1 (#191-G1; R&D Systems), 150 μg in 50 μL sodium succinate buffer, delivered nose-to-brain
Trigeminal ganglion CGRP [1]
  log-ratio (IGF-1/sham) of CGRP immunostaining after recurrent CSD: −0.90±0.15
[2]
  relative c-fos positive cell counts (sham set to 1.00): 0.52±0.11
[3]; brain slice cultures in vitro
  oxidative stress from menadione exposure: significantly reduced
[3]; rat hippocampal brain slice cultures
  spreading depression in slice cultures: significantly inhibited spreading depression
Trigeminal ganglion CGRP [4]; N2B IGF-1 150 μg versus sham, 24 hours, p<0.001
  reduction of CGRP levels in the trigeminal ganglion of naïve animals: ~75%
Trigeminal ganglion CGRP [4]; n=7/group
  natural logarithm ratio (IGF-1/sham) of CGRP immunostaining, naïve animals: −1.66±0.32
